Laboratory results reported in patent US20260266848A1, “COMPOSITIONS AND METHODS FOR DIAGNOSING AND TREATING DYSTONIA” (Duke University, priority 2023, published 2026).

Tested on: WT MEF EVs
Assay: Quantitative LC-MS/MS proteomics of EVs from ISRIB-treated WT MEF cultures
Format: cell-based, mouse
Parameters: key to ISRIB and DYT Parallel Direction / ISRIB and DYT Parallel Direction, Ctdsp1 / ISRIB and DYT Parallel Direction, Pcdh19 / ISRIB and DYT Parallel Direction, Tspan7 / ISRIB and DYT Parallel Direction, Myo1e / ISRIB and DYT Parallel Direction, Plpp3 / ISRIB and DYT Parallel Direction, Sh3bp4 / ISRIB and DYT Parallel Direction, Dnajc7 / ISRIB and DYT Parallel Direction, Drg1 / ISRIB and DYT Parallel Direction, Maea: YES = protein abundance effect similar to DYT/WT

O=C(COc1ccc(Cl)cc1)NC1CCC(NC(=O)COc2ccc(Cl)cc2)CC1 (stereo not shown) [ISRIB, reference compound]
genotype-disrupted proteins (n=363) reproduced by ISRIB (50 nM, 24 h, p<0.05): 7%
EV proteins disrupted by ISRIB treatment of WT cells (50 nM, 24 h, p<0.05, of 1974 proteins): 5%
WT + ISRIB/WT Cohen's d, Brd4 (EV protein Brd4 (Q9ESU6)): 0.37
WT + ISRIB/WT Cohen's d, Cdk11b (EV protein Cdk11b (P24788)): 4.28
WT + ISRIB/WT Cohen's d, Cfdp1 (EV protein Cfdp1 (O88271)): 8.58
WT + ISRIB/WT Cohen's d, Cstf1 (EV protein Cstf1 (Q99LC2)): 1.34
WT + ISRIB/WT Cohen's d, Ctdsp1 (EV protein Ctdsp1 (P58466)): −10.61
ISRIB and DYT Parallel Direction, Ctdsp1 (EV protein Ctdsp1 (P58466), WT + ISRIB vs WT): YES
WT + ISRIB/WT Cohen's d, Dcaf8 (EV protein Dcaf8 (Q8N7N5)): 0.84
WT + ISRIB/WT Cohen's d, Dnajc7 (EV protein Dnajc7 (Q9QYI3)): −2.37
ISRIB and DYT Parallel Direction, Dnajc7 (EV protein Dnajc7 (Q9QYI3), WT + ISRIB vs WT): YES
WT + ISRIB/WT Cohen's d, Drg1 (EV protein Drg1 (P32233)): −1.58
ISRIB and DYT Parallel Direction, Drg1 (EV protein Drg1 (P32233), WT + ISRIB vs WT): YES
WT + ISRIB/WT Cohen's d, Edil3 (EV protein Edil3 (O35474)): 3.24
WT + ISRIB/WT Cohen's d, Grwd1 (EV protein Grwd1 (Q810D6)): 4.92
WT + ISRIB/WT Cohen's d, Heatr3 (EV protein Heatr3 (Q8BQM4)): 1.40
WT + ISRIB/WT Cohen's d, Hmga2 (EV protein Hmga2 (P52927)): 0.21
WT + ISRIB/WT Cohen's d, Kntc1 (EV protein Kntc1 (Q8C3Y4)): 0.31
WT + ISRIB/WT Cohen's d, Lpar6 (EV protein Lpar6 (Q8BMC0)): −1.25
WT + ISRIB/WT Cohen's d, Lsm4 (EV protein Lsm4 (Q9QXA5)): 0.61
WT + ISRIB/WT Cohen's d, Maea (EV protein Maea (Q4VC33)): −2.82
ISRIB and DYT Parallel Direction, Maea (EV protein Maea (Q4VC33), WT + ISRIB vs WT): YES
WT + ISRIB/WT Cohen's d, Myo1e (EV protein Myo1e (E9Q634)): −1.56
ISRIB and DYT Parallel Direction, Myo1e (EV protein Myo1e (E9Q634), WT + ISRIB vs WT): YES
WT + ISRIB/WT Cohen's d, Naa50 (EV protein Naa50 (Q6PGB6)): 1.03
WT + ISRIB/WT Cohen's d, Ndrg1 (EV protein Ndrg1 (Q62433)): 1.14
WT + ISRIB/WT Cohen's d, P3h4 (EV protein P3h4 (Q8K2B0)): 1.07
WT + ISRIB/WT Cohen's d, Pacsin3 (EV protein Pacsin3 (Q99JB8)): −2.60
WT + ISRIB/WT Cohen's d, Pcdh19 (EV protein Pcdh19 (Q80TF3)): −2.26
ISRIB and DYT Parallel Direction, Pcdh19 (EV protein Pcdh19 (Q80TF3), WT + ISRIB vs WT): YES
WT + ISRIB/WT Cohen's d, Plpp3 (EV protein Plpp3 (Q99JY8)): 4.49
ISRIB and DYT Parallel Direction, Plpp3 (EV protein Plpp3 (Q99JY8), WT + ISRIB vs WT): YES
WT + ISRIB/WT Cohen's d, Rbm17 (EV protein Rbm17 (Q8JZX4)): 0.36
WT + ISRIB/WT Cohen's d, Sbno1 (EV protein Sbno1 (Q689Z5)): 0.31
WT + ISRIB/WT Cohen's d, Sec61b (EV protein Sec61b (Q9CQS8)): 3.71
WT + ISRIB/WT Cohen's d, Sh3bp4 (EV protein Sh3bp4 (Q921I6)): −0.29
ISRIB and DYT Parallel Direction, Sh3bp4 (EV protein Sh3bp4 (Q921I6), WT + ISRIB vs WT): YES
WT + ISRIB/WT Cohen's d, Srrm2 (EV protein Srrm2 (Q8BTI8)): 0.17
WT + ISRIB/WT Cohen's d, Sumo1 (EV protein Sumo1 (P63166)): 5.82
WT + ISRIB/WT Cohen's d, Tes (EV protein Tes (P47226)): 1.50
WT + ISRIB/WT Cohen's d, Timp3 (EV protein Timp3 (P39876)): −3.42
WT + ISRIB/WT Cohen's d, Tspan7 (EV protein Tspan7 (Q62283)): −0.21
ISRIB and DYT Parallel Direction, Tspan7 (EV protein Tspan7 (Q62283), WT + ISRIB vs WT): YES
WT + ISRIB/WT Cohen's d, Unc119b (EV protein Unc119b (Q8C4B4)): 0.17
proteins reduced in both mouse and human EVs whose abundance is modulated toward DYT1-like in WT cells (and toward correction by salubrinal in DYT1 cells) (ISRIB): 4 of the 7
Acaa1a (ACAA1) EV abundance Cohen's d (WT+ISRIB/WT, 50 nM, 24 h): −0.8751
Acaa1a (ACAA1) EV abundance Log2_FC (WT+ISRIB/WT, 50 nM, 24 h): −0.6305
Ano6 (ANO6) EV abundance Cohen's d (WT+ISRIB/WT, 50 nM, 24 h): 0.8352
Ano6 (ANO6) EV abundance Log2_FC (WT+ISRIB/WT, 50 nM, 24 h): 0.2496
Ap1b1 (AP1B1) EV abundance Cohen's d (WT+ISRIB/WT, 50 nM, 24 h): −0.2382
Ap1b1 (AP1B1) EV abundance Log2_FC (WT+ISRIB/WT, 50 nM, 24 h): −0.1813
Arl8b (ARL8B) EV abundance Cohen's d (WT+ISRIB/WT, 50 nM, 24 h): −0.8778
Arl8b (ARL8B) EV abundance Log2_FC (WT+ISRIB/WT, 50 nM, 24 h): −0.2989
Bzw2 (BZW2) EV abundance Cohen's d (WT+ISRIB/WT, 50 nM, 24 h): −0.9186
Bzw2 (BZW2) EV abundance Log2_FC (WT+ISRIB/WT, 50 nM, 24 h): 0.7265
Cryab (CRYAB) EV abundance Cohen's d (WT+ISRIB/WT, 50 nM, 24 h): −0.1165
Cryab (CRYAB) EV abundance Log2_FC (WT+ISRIB/WT, 50 nM, 24 h): 0.1177
DIst (DLST) EV abundance Cohen's d (WT+ISRIB/WT, 50 nM, 24 h): 0.6821
DIst (DLST) EV abundance Log2_FC (WT+ISRIB/WT, 50 nM, 24 h): −1.897
Ehd4 (EHD4) EV abundance Cohen's d (WT+ISRIB/WT, 50 nM, 24 h): −1.159
Ehd4 (EHD4) EV abundance Log2_FC (WT+ISRIB/WT, 50 nM, 24 h): −0.09267
Flna (FLNA) EV abundance Cohen's d (WT+ISRIB/WT, 50 nM, 24 h): −0.09039
Flna (FLNA) EV abundance Log2_FC (WT+ISRIB/WT, 50 nM, 24 h): −0.2341
Fscn1 (FSCN1) EV abundance Cohen's d (WT+ISRIB/WT, 50 nM, 24 h): −0.9728
Fscn1 (FSCN1) EV abundance Log2_FC (WT+ISRIB/WT, 50 nM, 24 h): −0.2944
Gart (GART) EV abundance Cohen's d (WT+ISRIB/WT, 50 nM, 24 h): −0.1196
Gart (GART) EV abundance Log2_FC (WT+ISRIB/WT, 50 nM, 24 h): −0.2546
Hist1h1b (H1-5) EV abundance Cohen's d (WT+ISRIB/WT, 50 nM, 24 h): −0.4556
Hist1h1b (H1-5) EV abundance Log2_FC (WT+ISRIB/WT, 50 nM, 24 h): −0.08676
Hnrnpc (HNRNPC) EV abundance Cohen's d (WT+ISRIB/WT, 50 nM, 24 h): 1.199
